Data on five molecules can be found in US20220007651A1, “BACILLUS THURINGIENSIS STRAINS AND METHODS FOR CONTROLLING PESTS” (priority 2018, published 2022).

Some results are limits rather than exact numbers.

In experiment [1] the test system is Spodoptera exigua Hübner (beet armyworm). Description: Insecticidal assay, second instars on 48-well agar substrate plates. Format: in vivo. From the text: Zwittermicin A was partially purified from a strain derived from Bacillus thuringiensis strain NRRL B-67688. After growing the strain in a soy-based medium, the whole broth was centrifuged and the supernatant removed. The supernatant was passed through a 3 kDa filter to separate the zwittermicin A from larger molecules including any Cry toxins. The Vip3Aa11 protein was produced in the expression strain of Escherichia coli BL21 and applied to insect larvae as the E. coli whole broth culture (WB) at concentrations of 0.1%, 1%, and 10%. Treatment groups included Vip3Aa11 only (“no Zwa”); Vip3Aa11 with zwittermicin A (“1×Zwa); and Vip3Aa11 with concentrated zwittermicin A (“2×Zwa”) containing twice as much zwittermicin. Concentrations of zwittermicin A and Vip3Aa11 were adjusted by adding deionized water to prepare the appropriate dilutions. Control treatments included zwittermicin A (“1×Zwa”) alone, concentrated zwittermicin A alone (“2×Zwa”), untreated control, and a positive control containing 1000 ppm of a commercially available biological control agent active against Lepidoptera.
To evaluate the insecticidal activity of each treatment, second instars of Spodoptera exigua Hυbner (beet armyworm) were grown on 48-well plates containing an agar substrate similar to that described in Marrone et al., (1985), “Improvements in Laboratory Rearing of the Southern Corn Rootworm, Diabrotica undecimpuncta howardi Barber (Coleoptera: Chrysomelidae), on an Artificial Diet and Corn,” J. Econ. Entomol. 78: 290-293. Each treatment was applied to the agar substrate and a second instar was then placed in the well. After several days, insect development and survival were evaluated. Insect development scores were rated according to the following scale: 1=severely stunted; 2=highly stunted, minimal growth; 3=slightly smaller than untreated control; 4=same size as untreated control. […]
The experiment conducted in Example 3 was repeated with Cry1Ab1, Cry1Ia2, or Cry2Ab1 expressed in Escherichia coli BL21 and applied to insect larvae as the E. coli whole broth culture (WB) at concentrations of 0.2%, 4%, 10%, and 50%. The insect mortality score is based on the following scale: 4=0-25% mortality, 3=26-50% mortality, 2=51-79% mortality, 1=80-100% mortality. All percentages are adjusted according to any mortality observed with untreated control Spodoptera exigua Hυbner (beet armyworm) larvae. […] All reported mortality scores are the average of three replicate measurements.
The experiment in Example 3 was also repeated with Cry1Ca1 and Cry1Da1, which were expressed in Escherichia coli BL21 and applied to insect larvae as the E. coli whole broth culture (WB) at various concentrations. Instead of insect mortality rates, LC50, which in this case is the percentage of whole broth needed to cause 50% mortality, without zwittermicin or with various concentrations of zwittermicin, was determined.

The next experiment relates to Lepidopteran pests. The note with it: Broderick et al., 2000; cited from earlier work.
Where [2] appears, read: Cry toxin applied alone, E. coli whole broth 0.2%, 4%, 10%, 50%.
Where [3] appears, read: Cry toxin in combination with zwittermicin A (1×Zwa), FIGS. 4A-4C.

In the case of `NC(=O)NCC(NC(=O)[C@@H](O)[C@H](O)[C@H](N)C(O)CC(O)C(N)CO)C(N)=O` (some centres unmarked) [zwittermicin A], the insect mortality result in experiment [1] (zwittermicin A alone, 1×Zwa) is listed as “generally had no observable effect on insect mortality”; in experiment [1] (zwittermicin alone at the concentrations used in the LC50 experiment), “generally had no observable effect on insect mortality”. Moreover, the “effect on insect growth or survival” value in experiment [1] (zwittermicin alone, 1×Zwa or 2×Zwa) is recorded as “no significant effect on insect growth or survival”. Also, in the experiment on Lepidopteran pests, the “insecticidal activity on its own” value was “little or no observable insecticidal activity”.

Regarding “Cry1Ab1: Cry toxin expressed in Escherichia coli BL21, applied as whole broth”, the figures for the insect mortality result in experiment [1] (setting [2]) and in experiment [1] (setting [3]) were “demonstrated insect mortality at the higher application rates” and “significant increase in insect mortality”, respectively.

Regarding “Cry1Da1: Cry toxin, SEQ ID NO: 17, expressed in Escherichia coli BL21, applied as whole broth”, the “~LC50” value in experiment [1] (No Zwa) is listed as >10 percentage of whole broth.

B1: Cry1Ia2: Cry toxin, SEQ ID NO: 9, expressed in Escherichia coli BL21, applied as whole broth (protein, listed as Bacillus thuringiensis)
chain: MKLKNQDKHQSFSSNAKVDKISTDSLKNETDIELQNINHEDCLKMSEYENVEPFVSASTIQTGIGIAGKILGTLGVPFAGQVASLYSFILGELWPKGKNQWEIFMEHVEEIINQKISTYARNKALTDLKGLGDALAVYHDSLESWVGNRNNTRARSVVKSQYIALELMFVQKLPSFAVSGEEVPLLPIYAQAANLHLLLLRDASIFGKEWGLSSSEISTFYNRQVERAGDYSDHCVKWYSTGLNNLRGTNAESWVRYNQFRRDMTLMVLDLVALFPSYDTQMYPIKTTAQLTREVYTDAIGTVHPHPSFTSTTWYNNNAPSFSAIEAAVVRNPHLLDFLEQVTIYSLLSRWSNTQYMNMWGGHKLEFRTIGGTLNISTQGSTNTSINPVTLPFTSRDVYRTESLAGLNLFLTQPVNGVPRVDFHWKFVTHPIASDNFYYPGYAGIGTQLQDSENELPPEATGQPNYESYSHRLSHIGLISASHVKALVYSWTHRSADRTNTIEPNSITQIPLVKAFNLSSGAAVVRGPGFTGGDILRRTNTGTFGDIRVNINPPFAQRYRVRIRYASTTDLQFHTSINGKAINQGNFSATMNRGEDLDYKTFRTVGFTTPFSFLDVQSTFTIGAWNFSSGNEVYIDRIEFVPVEVTYEAEYDFEKAQEKVTALFTSTNPRGLKTDVKDYHIDQVSNLVESLSDEFYLDEKRELFEIVKYAKQLHIERNM
Regarding B1, the insect mortality result in experiment [1] (setting [2]) was “little observable effect on insect mortality”; in experiment [1] (setting [3]), “significant increase in insect mortality”.

B2: Cry2Ab1: Cry toxin, SEQ ID NO: 10, expressed in Escherichia coli BL21, applied as whole broth (protein, listed as Bacillus thuringiensis)
chain: MNSVLNSGRTTICDAYNVAAHDPFSFQHKSLDTVQKEWTEWKKNNHSLYLDPIVGTVASFLLKKVGSLVGKRILSELRNLIFPSGSTNLMQDILRETEKFLNQRLNTDTLARVNAELTGLQANVEEFNRQVDNFLNPNRNAVPLSITSSVNTMQQLFLNRLPQFQMQGYQLLLLPLFAQAANLHLSFIRDVILNADEWGISAATLRTYRDYLKNYTRDYSNYCINTYQSAFKGLNTRLHDMLEFRTYMFLNVFEYVSIWSLFKYQSLLVSSGANLYASGSGPQQTQSFTSQDWPFLYSLFQVNSNYVLNGFSGARLSNTFPNIVGLPGSTTTHALLAARVNYSGGISSGDIGASPFNQNFNCSTFLPPLLTPFVRSWLDSGSDREGVATVTNWQTESFETTLGLRSGAFTARGNSNYFPDYFIRNISGVPLVVRNEDLRRPLHYNEIRNIASPSGTPGGARAYMVSVHNRKNNIHAVHENGSMIHLAPNDYTGFTISPIHATQVNNQTRTFISEKFGNQGDSLRFEQNNTTARYTLRGNGNSYNLYLRVSSIGNSTIRVTINGRVYTATNVNTTTNNDGVNDNGARFSDINIGNVVASSNSDVPLDINVTLNSGTQFDLMNIMLVPTNISPLY
Take B2: the insect mortality result is “demonstrated insect mortality at the higher application rates” in experiment [1] (setting [2]) and “significant increase in insect mortality” in experiment [1] (setting [3]).
